In the supplement of paper PMC4862054:

Tests used:
Settings in all cases: incubation time: 72 h
[1] = system: BT-474; test: normalised viability (% of control), CellTiter-Blue; higher = more viable cells (about 100 = DMSO control)
Procedure, shortened: (§1)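 Breast cancer cell lines in 20 µl suspension were seeded onto 384-well plates pre-loaded with compound dissolved in 5 µl medium, then incubated 72 h. CellTiter-Blue reagent (2.5 µl) was added for 2 h at 37 °C and fluorescence read at 560/590 nm. Each plate was normalised to vehicle (100) and a positive kill control (0), with Z'-factor quality control. The value is normalised viability at one listed concentration of the series.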

[2] = system: BT-549; test: as above
Procedure, shortened: as §1

[3] = system: CAL-148; test: as above
Procedure, shortened: as §1

[4] = system: CAL-51; test: as above
Procedure, shortened: as §1

[5] = system: CAL-85-1; test: as above
Procedure, shortened: as §1

[6] = system: HCC1143; test: as above
Procedure, shortened: as §1

[7] = system: HCC1599; test: as above
Procedure, shortened: as §1

[8] = system: Hs578T; test: as above
Procedure, shortened: as §1

[9] = system: MDA-MB-453; test: as above
Procedure, shortened: as §1

[10] = system: MDA-MB-468; test: as above
Procedure, shortened: as §1

[11] = system: MFM-223; test: as above
Procedure, shortened: as §1

[12] = system: BT-474; test: drug sensitivity score (DSS), CellTiter-Blue viability (DSS (AUC-based score)); higher = stronger viability inhibition; extreme values may be limits of the assay
Procedure, shortened: (§2)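 Drug sensitivity scores correspond to the area under the fitted dose-response curve. Breast cancer cell lines were incubated 72 h with compound at 5 or 9 concentrations in 384-well plates. Viability, read as CellTiter-Blue fluorescence at 560/590 nm, was normalised per plate to 0.1 % DMSO and a positive kill control.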

[13] = system: BT-549; test: as above
Procedure, shortened: as §2

[14] = system: CAL-148; test: as above
Procedure, shortened: as §2

[15] = system: CAL-51; test: as above
Procedure, shortened: as §2

[16] = system: CAL-85-1; test: as above
Procedure, shortened: as §2

[17] = system: HCC1599; test: as above
Procedure, shortened: as §2

[18] = system: HDQ-P1; test: as above
Procedure, shortened: as §2

[19] = system: Hs578T; test: as above
Procedure, shortened: as §2

[20] = system: MDA-MB-231; test: as above
Procedure, shortened: as §2

[21] = system: MDA-MB-436; test: as above
Procedure, shortened: as §2

[22] = system: MDA-MB-453; test: as above
Procedure, shortened: as §2

[23] = system: MDA-MB-468; test: as above
Procedure, shortened: as §2

[24] = system: SK-BR-3; test: as above
Procedure, shortened: as §2

NC(=O)NO [Hydroxyurea]
normalised viability [%]
Settings	30 nM	100 nM	300 nM	1000 nM	10000 nM	100000 nM
[1]	–	110	–	–	111	110
[2]	–	82.8	–	–	93.8	87
[3]	106	–	116	112	–	–
[4]	103	–	107	104	–	–
[5]	104	–	93.2	105	–	–
[6]	–	99.1	–	–	99.3	92.4
[7]	–	107	–	–	87.4	95.9
[8]	–	110	–	–	104	90.3
[9]	124	–	102	116	–	–
[10]	–	110	–	–	111	108
[11]	–	105	–	–	98.8	116

Settings	drug sensitivity score
[12]	0
[13]	0
[14]	0
[15]	0
[16]	0
[17]	0
[18]	0
[19]	0
[20]	0
[21]	0
[22]	0
[23]	0
[24]	0

O=NN(CCCl)C(=O)NC1CCCCC1 [Lomustine]
normalised viability [%]
Settings	3 nM	10 nM	30 nM	100 nM	1000 nM	10000 nM
[1]	–	108	–	–	114	128
[2]	–	84.4	–	–	86.6	84.6
[3]	100	–	113	99.4	–	–
[4]	110	–	109	110	–	–
[5]	104	–	88	104	–	–
[6]	–	89.3	–	–	90.5	89.5
[7]	–	108	–	–	81.4	117
[8]	–	105	–	–	98.1	98.7
[9]	120	–	102	94.7	–	–
[10]	–	100	–	–	98.1	95.6
[11]	–	84.7	–	–	87.9	54.7

Settings	drug sensitivity score
[12]	0
[13]	0
[14]	0
[15]	0
[16]	0
[17]	0
[18]	0
[19]	0
[20]	0
[21]	0
[22]	0
[23]	0
[24]	0

O=C(O)CC[C@H]1CC[C@@](c2cc(F)ccc2F)(S(=O)(=O)c2ccc(Cl)cc2)CC1 [MK-0752]
normalised viability [%]
Settings	0.3 nM	1 nM	3 nM	10 nM	100 nM	1000 nM
[1]	–	121	–	–	128	134
[2]	–	93.4	–	–	80.3	99.1
[3]	99.1	–	109	111	–	–
[4]	106	–	101	98.8	–	–
[5]	98.7	–	82.4	103	–	–
[6]	–	81.5	–	–	108	89.4
[7]	–	98.2	–	–	81.8	74.7
[8]	–	137	–	–	103	113
[9]	113	–	107	125	–	–
[10]	–	98.9	–	–	94.9	110
[11]	–	103	–	–	94.3	97.9

Settings	drug sensitivity score
[12]	0
[13]	0
[14]	0
[15]	0
[16]	0
[17]	2.93
[18]	0
[19]	0
[20]	0
[21]	0
[22]	0
[23]	0
[24]	0

NC1(c2ccc(-c3nc4ccn5c(=O)[nH]nc5c4cc3-c3ccccc3)cc2)CCC1 [MK-2206]
normalised viability [%]
Settings	0.3 nM	1 nM	3 nM	10 nM	100 nM	1000 nM
[1]	–	115	–	–	92.3	54
[2]	–	101	–	–	106	85.3
[3]	102	–	106	110	–	–
[4]	104	–	101	99.6	–	–
[5]	104	–	95	100	–	–
[6]	–	105	–	–	108	87.7
[7]	–	98.8	–	–	95.7	62.3
[8]	–	118	–	–	124	85.2
[9]	112	–	95.2	96.6	–	–
[10]	–	108	–	–	90.7	72.9
[11]	–	109	–	–	96.8	19.8

Settings	drug sensitivity score
[12]	3.69
[13]	0
[14]	1.65
[15]	1.04
[16]	0
[17]	0
[18]	0
[19]	0
[20]	0
[21]	2.37
[22]	4.04
[23]	2.36
[24]	6.38
